Results: patent publication US12528790B2, “Amide derivative having antiviral activity” (Shionogi & Co., Ltd., priority 2020, dated 2026)
Where two headings read alike, the source gives them in different places.

What was measured:
RSV A2 strain = assay: In vitro CPE (CytoPathic Effect) inhibition effect evaluation test, RSV type A; type: cell-based
Summary of the method: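 HEp-2 cells (2.4×10^5 cells/mL, 2% FBS E-MEM) were infected with RSV alongside 3-fold compound dilutions and incubated at 37 °C, 4 days for A2 and 5 days for B Wash/18537. Viable cells quantified by CellTiter-Glo 2.0 luminescence; EC50 by nonlinear regression as 50% CPE inhibition.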

[1] = tested on: RSV B (Wash/18537 strain); assay: In vitro CPE (CytoPathic Effect) inhibition effect evaluation test, RSV type B; type: cell-based
Protocol: The test sample is diluted in advance to an appropriate concentration with DMSO, and 3-fold series of serial dilutions were prepared on a 384-well plate (0.32 μL/well). HEp-2 cells (CCL-23; ATCC) adjusted at appropriate number (2.4×10^5 cells/mL) in 2% FBS E-MEM (prepared by adding kanamycin and FBS to Eagle's Minimum Essential Medium; Invitrogen) were added at 12.5 μL/well to the 384-well plate previously aliquoted with the test samples. The RSV A2 strain was diluted to an appropriate concentration in a culture medium and added to the 384-well plate containing the test sample at 12.5 μL/well. The culture medium was added additionally to the 384-well plate, and the test was started with 50 μL/well. Control wells were prepared with only virus-free culture medium. The plate was incubated in a 5% CO2 incubator at 37° C. for 4 days, and the plate was then placed at room temperature for 30 minutes. CellTiter-Glo (registered trademark) 2.0 assay (Promega) was added at 15 μL/well, mixed for 30 seconds, and the plate was placed for approximately 1 hour. The luminescent signal was then measured by EnVision (PerkinElmer). The inhibitory effect of the test agents on RSV-induced CPE was calculated as 0% and 100% inhibition rate for each sample concentration based on the level of remaining viable cells by CellTiter-Glo (registered trademark) 2.0, with the EC50 value for each compound calculated by nonlinear regression as the concentration that inhibits RSV-induced CPE by 50%. In the case of evaluation against RSV type B, RSV B (Wash/18537 strain) was infected in the same manner as the type A, cultured for 5 days, and quantitated in the same manner as for the A2 strain.

[2] = human respiratory syncytial virus, inhibitory effect against RSV type A (RSV A2 strain), HEp-2 cells, CPE inhibition, read-out: EC50
[3] = human respiratory syncytial virus, inhibitory effect against RSV type B, CPE inhibition, read-out: EC50
[4] = inhibitory effect against RSV type A (RSV A2 strain), HEp-2 cells, CPE inhibition, read-out: EC50
[5] = inhibitory effect against RSV type B, CPE inhibition, read-out: EC50
[6] = human respiratory syncytial virus, HEp-2, 96 h, read-out: EC50, inhibitory effect against RSV type A (CPE inhibition)
[7] = human respiratory syncytial virus, HEp-2, 120 h, HEp-2 cells, RSV B (Wash/18537 strain), 5 days, CellTiter-Glo, read-out: EC50, inhibitory effect against RSV type B (CPE inhibition)

Structure (SMILES) | EC50 (RSV A2 strain; [2]) [nM] | EC50 [1, 3] [nM] | further results
Cn1cc2c(n1)CCC(Oc1ccc3c(c1)C1(CCOCC1)CN3c1ncc(C(=O)NC3(C(=O)O)C4CC5CC(C4)CC3C5)c(C(F)(F)F)n1)C2 (racemic) [Compound I-189] | < 10 | < 10 | –
O=C(NC1(C(=O)O)C2CC3CC(C2)CC1C3)c1cnc(N2CC3(CCOC3)c3cc(OC4CCN(c5ncccn5)CC4)ccc32)nc1C(F)(F)F (racemic) [Compound I-257] | < 10 | < 10 | –
COCC(C)n1cc(-c2ncc(C(=O)NC3(C(=O)O)C4CC5CC(C4)CC3C5)c(C(F)(F)F)n2)c2ccc(OC3CCN(c4ncc(F)cn4)CC3)cc21 (racemic) [Compound I-430] | < 10 | < 10 | –
O=C(NC1(C(=O)O)C2CC3CC(C2)CC1C3)c1cnc(N2CC3(CCOC3)c3cc(OCC(F)(F)F)ccc32)nc1C(F)(F)F (racemic) [Compound I-466] | < 10 | 10 to 100 | –
O=C(NC1(C(=O)O)C2CC3CC(C2)CC1C3)c1cnc(N2CC3(CCOC3)c3cc(OC4CCN(CC(F)(F)F)CC4)ccc32)nc1C(F)(F)F (racemic) [Compound I-467] | < 10 | < 10 | –
O=C(NC1(C(=O)O)C2CC3CC(C2)CC1C3)c1cnc(N2CC3(CCCCC3)c3cc(OC4CCC(=NOC5CC(F)(F)C5)CC4)ccc32)nc1C(F)(F)F (racemic) [Compound I-475] | – | – | EC50 (RSV A2 strain; [4]): < 10 nM; EC50 [1, 5]: 10 to 100 nM
O=C(NC1(C(=O)O)C2CC3CC(C2)CC1C3)c1cnc(N2CC(C3CCCC3)c3cc(OC4CCN(c5ncc(F)cn5)CC4)ccc32)nc1C(F)(F)F (racemic) [Compound I-486] | – | – | EC50 (RSV A2 strain; [6]): 3 nM; EC50 [1, 7]: 28 nM
O=C(NC1(C(=O)O)C2CC3CC(C2)CC1C3)c1cnc(N2CC(C3CCCC3)c3cc(OC4CCN(CC(F)(F)F)CC4)ccc32)nc1C(F)(F)F (racemic) [Compound I-487] | < 10 | 10 to 100 | –
COc1cccc(COc2ccc3c(c2)CCN3c2ncc(C(=O)NC3(C(=O)O)CC4CCC3C4)c(C(F)(F)F)n2)c1 (single isomer, unassigned) [Compound I-16] | < 10 | 10 to 100 | –
Cn1ncc2c1CCC(Oc1ccc3c(c1)C1(CCOCC1)CN3c1ncc(C(=O)NC3(C(=O)O)C4CC5CC(C4)CC3C5)c(C(F)(F)F)n1)C2 (single isomer, unassigned) [Compound I-190] | < 10 | < 10 | –
O=C(NC1(C(=O)O)C2CC3CC(C2)CC1C3)c1ccc(-c2cn(C3CCC(F)CC3)c3cc(OC4CCN(c5ncc(F)cn5)CC4)ccc23)nc1C(F)(F)F (single isomer, unassigned) [Compound I-397] | < 10 | < 10 | –
O=C(NC1(C(=O)O)C2CC3CC(C2)CC1C3)c1cnc(-c2cn(C3CCC(F)(F)CC3)c3cc(OC4CC(N5CC(F)(F)C5)C4)ccc23)nc1C(F)(F)F (single isomer, unassigned) [Compound I-412] | < 10 | 10 to 100 | –
O=C(NC1(C(=O)O)C2CC3CC(C2)CC1C3)c1cnc(-c2cn(C3CCC(F)(F)CC3)c3cc(OC4CC(N5CC(F)(F)C5)C4)ccc23)nc1C(F)(F)F (single isomer, unassigned) [Compound I-413] | – | – | EC50 (RSV A2 strain; [4]): < 10 nM; EC50 [1, 5]: 10 to 100 nM
COC1CCC(n2cc(-c3ncc(C(=O)NC4(C(=O)O)C5CC6CC(C5)CC4C6)c(C(F)(F)F)n3)c3ccc(OC4CCN(c5ncc(F)cn5)CC4)cc32)CC1 (single isomer, unassigned) [Compound I-423] | < 10 | < 10 | –
O=C(NC1(C(=O)O)C2CC3CC(C2)CC1C3)c1ccc(-c2cn(C3CC4C=CC(C3)O4)c3cc(OC4CCN(c5ncc(F)cn5)CC4)ccc23)nc1C(F)(F)F (single isomer, unassigned) [Compound I-434] | < 10 | < 10 | –
C/C(=N\OC1CCC(F)(F)CC1)c1ccc2c(c1)C1(CCCCC1)CN2c1ncc(C(=O)NC2(C(=O)O)C3CC4CC(C3)CC2C4)c(C(F)(F)F)n1 (single isomer, unassigned) [Compound I-476] | 10 to 100 | 100 to 5000 | –
C/C(=N\OC1CC(F)(F)C1)c1ccc2c(c1)C1(CCCCC1)CN2c1ncc(C(=O)NC2(C(=O)O)C3CC4CC(C3)CC2C4)c(C(F)(F)F)n1 (single isomer, unassigned) [Compound I-477] | 10 to 100 | 100 to 5000 | –
O=C(NC1(C(=O)O)C2CC3CC(C2)CC1C3)c1cnc(-c2cn(C3CCC(F)(F)CC3)c3cc(OC4CCC(OC5CC5)CC4)ccc23)nc1C(F)(F)F (single isomer, unassigned) [Compound I-478] | < 10 | < 10 | –

Structure (SMILES) | EC50 (RSV A2 strain; [2]) [nM] | EC50 [1, 3] [nM] | further results
O=C(NC1(C(=O)O)C2CC3CC(C2)CC1C3)c1cnc(-c2cn(C3CCC(F)(F)CC3)c3cc(OC4CCC(OC5CC5)CC4)ccc23)nc1C(F)(F)F (single isomer, unassigned) [Compound I-480] | – | – | EC50 (RSV A2 strain; [4]): < 10 nM; EC50 [1, 5]: 10 to 100 nM
O=C(NC1(C(=O)O)C2CC3CC(C2)CC1C3)c1cnc(-c2cn(C3CCC(F)CC3)c3cc(O[C@H]4CC[C@H](N5CC(F)(F)C5)CC4)ccc23)nc1C(F)(F)F (single isomer, unassigned) [Compound I-509] | < 10 | < 10 | –
O=C(NC1(C(=O)O)C2CC3CC(C2)CC1C3)c1cnc(-c2cn(C3CCC(F)(F)CC3)c3cc(OC4CC(CN5CC(F)(F)C5)C4)ccc23)nc1C(F)(F)F (single isomer, unassigned) [Compound I-516] | < 10 | 10 to 100 | –
CC(F)(F)c1nc(-c2cn(C3CCC(F)CC3)c3cc(O[C@H]4CC[C@H](N5CC(F)(F)C5)CC4)ccc23)ncc1C(=O)NC1(C(=O)O)C2CC3CC(C2)CC1C3 (single isomer, unassigned) [Compound I-568] | < 10 | < 10 | –
O=C(NC1(C(=O)O)C2CC3CC(C2)CC1C3)c1ccc(-c2cn(C3CCC(F)CC3)c3cc(O[C@H]4CC[C@H](N5CC(F)(F)C5)CC4)ccc23)nc1C(F)(F)F (single isomer, unassigned) [Compound I-579] | < 10 | < 10 | –
CC(F)(F)c1nc(-c2cn(C3CCC(F)(F)CC3)c3cc(O[C@H]4C[C@@H](N5CC(F)(F)C5)C4)ccc23)ncc1C(=O)NC1(C(=O)O)C2CC3CC(C2)CC1C3 (single isomer, unassigned) [Compound I-619] | < 10 | < 10 | –
CC(F)(F)c1nc(-c2cn(C3CCOCC3)c3cc(OC4CC(N5CC(F)(F)C5)C4)ccc23)ncc1C(=O)NC1(C(=O)O)C2CC3CC(C2)CC1C3 (single isomer, unassigned) [Compound I-621] | < 10 | < 10 | –
COCCCCOc1ccc2c(c1C)CCN2c1ncc(C(=O)NC2(C(=O)O)CCCCC2)c(C(F)(F)F)n1 [Compound I-1] | 10 to 100 | 100 to 5000 | –
COCCCCOc1ccc2c(c1)CCN2c1ncc(C(=O)NC2(C(=O)O)CCCCC2)c(C(F)(F)F)n1 [Compound I-2] | 10 to 100 | 100 to 5000 | –
COc1cccc(COc2ccc3c(c2)CCN3c2ncc(C(=O)NC3(C(=O)O)CCCCC3)c(C(F)(F)F)n2)c1 [Compound I-3] | 10 to 100 | 10 to 100 | –
O=C(NC1(C(=O)O)CCCCC1)c1cnc(N2CCc3cc(OCCc4ccccc4)ccc32)nc1C(F)(F)F [Compound I-4] | 10 to 100 | 100 to 5000 | –
N#CCCCCOc1ccc2c(c1)CCN2c1ncc(C(=O)NC2(C(=O)O)CCCCC2)c(C(F)(F)F)n1 [Compound I-5] | 10 to 100 | 100 to 5000 | –
COCCCOc1ccc2c(c1)CCN2c1ncc(C(=O)NC2(C(=O)O)CCCCC2)c(C(F)(F)F)n1 [Compound I-7] | 10 to 100 | 100 to 5000 | –
O=C(NC1(C(=O)O)CCCCC1)c1cnc(N2CCc3cc(OCCC4CCOCC4)ccc32)nc1C(F)(F)F [Compound I-8] | 10 to 100 | 10 to 100 | –
COCc1ccc(-c2ccc3c(c2)CCN3c2ncc(C(=O)NC3(C(=O)O)CCCCC3)c(C(F)(F)F)n2)cc1 [Compound I-9] | 10 to 100 | 100 to 5000 | –
COc1cccc(COc2ccc3c(c2)CCN3c2ncc(C(=O)NC3(C(=O)O)C4CC5CC(C4)CC3C5)c(C(F)(F)F)n2)c1 (stereo not drawn) [Compound I-21] | < 10 | 10 to 100 | –
O=C(NC1(C(=O)O)C2CC3CC(C2)CC1C3)c1cnc(N2CCc3cc(OCCC4CCOCC4)ccc32)nc1C(F)(F)F (stereo not drawn) [Compound I-23] | – | – | EC50 (RSV A2 strain; [6]): 0.96 nM; EC50 [1, 7]: 16 nM
O=C(NC1(C(=O)O)C2CC3CC(C2)CC1C3)c1cnc(N2CCc3cc(OCCN4CCOCC4)ccc32)nc1C(F)(F)F (stereo not drawn) [Compound I-31] | < 10 | 10 to 100 | –
